A short description of this data set: physchem. Format: physicochemical. Conditions: aqueous gamma-cyclodextrin 200 mg/ml. The protocol: This hydrogel can then be loaded with JM, which forms a host-guest complex with the yCD molecules Fig. 2 the amount of chlorine in various EPI crosslinked hydrogel samples was quantified. The EPI contains chlorine, but the final crosslinked hydrogel should not. Gels washed at 37°C in DI water were given either three 1-hour washes (short wash) or two 1-hour washes followed by an overnight wash with water or Ethanol. […] Fig. 3 the maximum solubility of Josamycin in aqueous solutions of various yCD concentrations was measured. Soluble JM was measured by HPLC. […] The amount of JM released was measured over time and expressed as a percent of the total JM initially loaded into the gel. Most of the JM was released within the first 96 hrs. […] On the left are molded and washed gels, which have been completely dried. On the right is a fully rehydrated gel which is almost completely transparent. […] The total drug loading was linearly related to the amount of josamycin in the loading solution.
The first formulation developed is a solution of yCD and JM. Solutions of JM and yCD can be made up to 18.9 mg/ml JM with 200 mg/ml yCD. These solutions are formed by simply mixing the JM and yCD in water or PBS until dissolved. This liquid formulation can then be sterilized via syringe filter before use. The solution is suitable for application to the eye as an eye drop or injection during or after surgery. […]

Solubility data for one molecule are collected here from patent EP4356929A1, “ANTIFIBROTIC FORMULATION FOR OPHTHALMIC TREATMENT” (Universität Rostock, priority 2022, dated 2024).

SMILES strings stand for the structures. Where only a bound is given, the exact number is not on record here.

`CO[C@@H]1[C@@H](O[C@@H]2O[C@H](C)[C@@H](O[C@H]3C[C@@](C)(O)[C@@H](OC(=O)CC(C)C)[C@H](C)O3)[C@H](N(C)C)[C@H]2O)[C@@H](CC=O)C[C@@H](C)[C@@H](O)/C=C/C=C/C[C@@H](C)OC(=O)C[C@H]1OC(C)=O` [JM, josamycin] showed a solubility of at most 18.9 mg/mL.
